Measured values reported in PubChem BioAssay (NCI).
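Assay format: 96-well plates, 48-hour exposure. Definition used: TGI = concentration required for complete inhibition of growth.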

What was measured:
Test in all cases: inhibition of tumour cell growth, NCI panel, 48 h
[1] = test system: T-47D breast
[2] = test system: A498 renal
[3] = test system: HCT-116 colon
[4] = test system: SNB-19 CNS
[5] = test system: HT29 colon
[6] = test system: ACHN renal
[7] = test system: MCF7 breast
[8] = test system: COLO 205 colon
[9] = test system: M14 melanoma
[10] = test system: IGROV1 ovarian
[11] = test system: SW-620 colon
[12] = test system: HCC-2998 colon
[13] = test system: OVCAR-8 ovarian
[14] = test system: MDA-MB-435
[15] = test system: UACC-257 melanoma
[16] = test system: MDA-N
[17] = test system: SK-MEL-2 melanoma
[18] = test system: HL-60(TB) leukemia
[19] = test system: CAKI-1 renal
[20] = test system: 786-0 renal
[21] = test system: SF-539 CNS
[22] = test system: UACC-62 melanoma
[23] = test system: TK-10 renal
[24] = test system: HS 578T breast
[25] = test system: SK-MEL-5 melanoma
[26] = test system: SR leukemia
[27] = test system: SN12C renal
[28] = test system: OVCAR-4 ovarian
[29] = test system: KM12 colon
[30] = test system: PC-3 prostate
[31] = test system: OVCAR-5 ovarian
[32] = test system: SF-295 CNS
[33] = test system: K-562 leukemia
[34] = test system: NCI-H23 lung
[35] = test system: SK-OV-3 ovarian
[36] = test system: SF-268 CNS
[37] = test system: CCRF-CEM leukemia
[38] = test system: BT-549 breast
[39] = test system: MDA-MB-231 breast
[40] = test system: NCI-H226 lung
[41] = test system: NCI-H522 lung
[42] = test system: LOX IMVI melanoma
[43] = test system: U251 CNS
[44] = test system: HOP-92 NSCLC
[45] = test system: UO-31 renal
[46] = test system: SK-MEL-28 melanoma
[47] = test system: MOLT-4 leukemia
[48] = test system: MALME-3M melanoma
[49] = test system: NCI/ADR-RES ovarian
[50] = test system: A549 NSCLC
[51] = test system: NCI-H460 lung
[52] = test system: HCT-15 colon
[53] = test system: DU-145 prostate
[54] = test system: EKVX NSCLC
[55] = test system: SNB-75 CNS

COc1ccc2cc1Oc1ccc(cc1)CC1c3cc(OC)c(cc3CCN1C)Oc1c(OC)c(OC)cc3c1C(C2)N(C)CC3 (stereo not given)
TGI [1]: 20.5 µM | TGI [2]: 23.9 µM | TGI [3]: > 75 µM | TGI [4]: 27.1 µM | TGI [5]: 18 µM | TGI [6]: 19 µM | TGI [7]: 36.7 µM | TGI [8]: 11.8 µM | TGI [9]: 15 µM | TGI [10]: 64.2 µM | TGI [11]: > 75 µM | TGI [12]: 19.1 µM | TGI [13]: 23.2 µM | TGI [14]: 26.2 µM | TGI [15]: 16.1 µM | TGI [16]: 20.3 µM | TGI [17]: 25.6 µM | TGI [18]: 16.3 µM | TGI [19]: 29.4 µM | TGI [20]: 30.4 µM | TGI [21]: 19.5 µM | TGI [22]: 23.3 µM | TGI [23]: 20.6 µM | TGI [24]: 25.6 µM | TGI [25]: 15.9 µM | TGI [26]: 4.33 µM | TGI [27]: 18.3 µM | TGI [28]: 24.4 µM | TGI [29]: 26 µM | TGI [30]: 40.7 µM | TGI [31]: > 75 µM | TGI [32]: 21.1 µM | TGI [33]: 28.7 µM | TGI [34]: 35.6 µM | TGI [35]: > 75 µM | TGI [36]: 33.6 µM | TGI [37]: 42.4 µM | TGI [38]: 20.9 µM | TGI [39]: 21.5 µM | TGI [40]: 51.7 µM | TGI [41]: 20.6 µM | TGI [42]: 28 µM | TGI [43]: 24.6 µM | TGI [44]: 34.1 µM | TGI [45]: 18.8 µM | TGI [46]: 34.9 µM | TGI [47]: 32.4 µM | TGI [48]: 23.1 µM | TGI [49]: 29.9 µM | TGI [50]: 53.4 µM | TGI [51]: 19.8 µM | TGI [52]: 18.3 µM | TGI [53]: 27.9 µM | TGI [54]: 31.7 µM | TGI [55]: 18.2 µM
